This note sets out measurements from ChEMBL document CHEMBL1139244, “Synthesis and antifungal activity of 1H-pyrrolo[3,2-g]quinoline-4,9-diones and 4,9-dioxo-4,9-dihydro-1H-benzo[f]indoles” (2009).

Values after ≈ are worked out from the molar mass of the structure shown.

Format in all cases: functional
One test concerns Candida tropicalis. Description: Antifungal activity against Candida tropicalis KCCM 50662 after 1 day. The conditions noted are these: KCCM 50662, 24 h.
The subject of the next test is Candida albicans. Description: Antifungal activity against Candida albicans KCCM 50235 after 1 day. The conditions noted are these: KCCM 50235, 24 h.
A further test has as its system Pichia kudriavzevii. Kind of test: Antifungal activity against Candida krusei KCCM 11655 after 1 day. Conditions: KCCM 11655, 24 h.
The subject of another test is Cryptococcus neoformans. Kind of test: Antifungal activity against Cryptococcus neoformans KCCM 50564 after 1 day. Conditions: KCCM 50564, 24 h.
The next test concerns Aspergillus niger. Kind of test: Antifungal activity against Aspergillus niger KCTC 1231 after 2 days. The conditions noted are these: KCTC 1231, 48 h.

As to `Cn1c(N)c(C#N)c2c1C(=O)c1ccccc1C2=O`, the MIC in the test with Candida tropicalis turned out to be 6.3 µg/mL (≈ 25.1 µM); in the test on Candida albicans, 12.5 µg/mL (≈ 49.8 µM); against Pichia kudriavzevii it was 12.5 µg/mL (≈ 49.8 µM); in the test on Cryptococcus neoformans, 12.5 µg/mL (≈ 49.8 µM); against Aspergillus niger, 25 µg/mL (≈ 99.5 µM).
Regarding `Nc1ccc(O)c2ncccc12`, the MIC with Candida tropicalis was > 100 µg/mL; against Candida albicans, > 100 µg/mL; with Pichia kudriavzevii, 100 µg/mL (≈ 624 µM); against Cryptococcus neoformans it was 100 µg/mL (≈ 624 µM); against Aspergillus niger, > 100 µg/mL.
On to `CCOC(=O)c1c2c(n(-c3ccc(C)cc3)c1N)C(=O)c1ncccc1C2=O`, for which the MIC with Candida tropicalis is 3.2 µg/mL (≈ 8.52 µM); in the test on Candida albicans, > 100 µg/mL; against Pichia kudriavzevii, 12.5 µg/mL (≈ 33.3 µM); with Cryptococcus neoformans it was 12.5 µg/mL (≈ 33.3 µM); with Aspergillus niger, 25 µg/mL (≈ 66.6 µM).
As to `COC(=O)c1c2c(n(-c3ccc(OC)cc3)c1N)C(=O)c1ncccc1C2=O`, the MIC was > 100 µg/mL with Candida tropicalis; > 100 µg/mL in the test on Candida albicans; 12.5 µg/mL (≈ 33.1 µM) in the test on Pichia kudriavzevii; > 100 µg/mL with Cryptococcus neoformans; 50 µg/mL (≈ 133 µM) against Aspergillus niger.
In the case of `COC(=O)c1c2c(n(-c3ccccc3)c1N)C(=O)c1ncccc1C2=O`, the MIC against Candida tropicalis is > 100 µg/mL; in the test on Candida albicans, > 100 µg/mL; with Pichia kudriavzevii, 50 µg/mL (≈ 144 µM); against Cryptococcus neoformans, > 100 µg/mL; against Aspergillus niger, 50 µg/mL (≈ 144 µM).
As for `CCOC(=O)c1c2c(n(-c3ccc(OC)cc3)c1N)C(=O)c1ncccc1C2=O`, the MIC in the test on Candida tropicalis is 12.5 µg/mL (≈ 31.9 µM); in the test on Candida albicans it was > 100 µg/mL; against Pichia kudriavzevii it was > 100 µg/mL; against Cryptococcus neoformans it was 50 µg/mL (≈ 128 µM); in the test on Aspergillus niger, 25 µg/mL (≈ 63.9 µM).
In the case of `COC(=O)c1c2c(n(-c3ccc(C)cc3)c1N)C(=O)c1ncccc1C2=O`, the MIC was 100 µg/mL (≈ 277 µM) in the test with Candida tropicalis; 100 µg/mL (≈ 277 µM) in the test with Candida albicans; 12.5 µg/mL (≈ 34.6 µM) against Pichia kudriavzevii; 12.5 µg/mL (≈ 34.6 µM) with Cryptococcus neoformans; > 100 µg/mL with Aspergillus niger.
`CCOC(=O)c1c2c(n(-c3ccc(F)c(F)c3)c1N)C(=O)c1ncccc1C2=O`: the MIC with Candida tropicalis is 50 µg/mL (≈ 126 µM); against Candida albicans, 1.6 µg/mL (≈ 4.03 µM); against Pichia kudriavzevii it was 25 µg/mL (≈ 62.9 µM); in the test on Cryptococcus neoformans, 50 µg/mL (≈ 126 µM); against Aspergillus niger, 25 µg/mL (≈ 62.9 µM).
Consider `CCOC(=O)c1c2c(n(-c3ccc(Cl)cc3)c1N)C(=O)c1ncccc1C2=O`, for which the MIC in the test on Candida tropicalis was 3.2 µg/mL (≈ 8.08 µM); against Candida albicans, > 100 µg/mL; against Pichia kudriavzevii, > 100 µg/mL; against Cryptococcus neoformans, 50 µg/mL (≈ 126 µM); against Aspergillus niger it was 6.3 µg/mL (≈ 15.9 µM).
For `CCOC(=O)c1c2c(n(-c3ccc(Br)cc3)c1N)C(=O)c1ncccc1C2=O`, the MIC was 3.2 µg/mL (≈ 7.27 µM) in the test on Candida tropicalis; 50 µg/mL (≈ 114 µM) in the test with Candida albicans; > 100 µg/mL against Pichia kudriavzevii; 25 µg/mL (≈ 56.8 µM) against Cryptococcus neoformans; 50 µg/mL (≈ 114 µM) in the test with Aspergillus niger.
On to `CCOC(=O)c1c2c(n(-c3ccc(C(F)(F)F)cc3)c1N)C(=O)c1ncccc1C2=O`, for which the MIC is 0.8 µg/mL (≈ 1.86 µM) in the test on Candida tropicalis; 6.3 µg/mL (≈ 14.7 µM) against Candida albicans; 6.3 µg/mL (≈ 14.7 µM) in the test with Pichia kudriavzevii; 12.5 µg/mL (≈ 29.1 µM) against Cryptococcus neoformans; 12.5 µg/mL (≈ 29.1 µM) in the test on Aspergillus niger.
For the compound `CCOC(=O)c1c2c(n(-c3ccc(F)cc3)c1N)C(=O)c1ncccc1C2=O`, the MIC was 6.3 µg/mL (≈ 16.6 µM) with Candida tropicalis; > 100 µg/mL with Candida albicans; > 100 µg/mL in the test with Pichia kudriavzevii; 25 µg/mL (≈ 65.9 µM) with Cryptococcus neoformans; 50 µg/mL (≈ 132 µM) in the test on Aspergillus niger.
On to `CCn1c(N)c(C#N)c2c1C(=O)c1ccccc1C2=O`, for which the minimum inhibitory concentration (MIC) with Candida tropicalis was determined as 25 µg/mL (≈ 94.2 µM); against Candida albicans it was 25 µg/mL (≈ 94.2 µM); with Pichia kudriavzevii, 12.5 µg/mL (≈ 47.1 µM); in the test with Cryptococcus neoformans it was 12.5 µg/mL (≈ 47.1 µM); against Aspergillus niger, 25 µg/mL (≈ 94.2 µM).
`Cc1ccc(-n2c(N)c(C#N)c3c2C(=O)c2ccccc2C3=O)cc1`: the MIC in the test on Candida tropicalis was > 100 µg/mL; in the test on Candida albicans, > 100 µg/mL; against Pichia kudriavzevii, 3.2 µg/mL (≈ 9.78 µM); in the test on Cryptococcus neoformans, 100 µg/mL (≈ 305 µM); against Aspergillus niger it was > 100 µg/mL.
As to `N#Cc1c2c(n(-c3ccccc3)c1N)C(=O)c1ccccc1C2=O`, the MIC is 100 µg/mL (≈ 319 µM) with Candida tropicalis; 100 µg/mL (≈ 319 µM) in the test with Candida albicans; 3.2 µg/mL (≈ 10.2 µM) against Pichia kudriavzevii; 100 µg/mL (≈ 319 µM) with Cryptococcus neoformans; > 100 µg/mL against Aspergillus niger.
Consider `CCOC(=O)c1c2c(n(-c3ccc(O)cc3)c1N)C(=O)c1ncccc1C2=O`, for which the MIC in the test on Candida tropicalis was 0.6 µg/mL (≈ 1.59 µM); in the test with Candida albicans it was 3.2 µg/mL (≈ 8.48 µM); in the test on Pichia kudriavzevii, 12.5 µg/mL (≈ 33.1 µM); against Cryptococcus neoformans it was 12.5 µg/mL (≈ 33.1 µM); in the test with Aspergillus niger, 25 µg/mL (≈ 66.3 µM).
Regarding `CCOC(=O)c1c2c(n(-c3ccccc3)c1N)C(=O)c1ncccc1C2=O`, the MIC in the test on Candida tropicalis was 6.3 µg/mL (≈ 17.4 µM); in the test with Candida albicans it was > 100 µg/mL; against Pichia kudriavzevii, > 100 µg/mL; in the test on Cryptococcus neoformans it was 50 µg/mL (≈ 138 µM); against Aspergillus niger, 50 µg/mL (≈ 138 µM).
`CCOC(=O)c1c2c(n(-c3ccc(I)cc3)c1N)C(=O)c1ncccc1C2=O`: the MIC in the test with Candida tropicalis was 3.2 µg/mL (≈ 6.57 µM); with Candida albicans, 25 µg/mL (≈ 51.3 µM); against Pichia kudriavzevii, 25 µg/mL (≈ 51.3 µM); in the test on Cryptococcus neoformans, 25 µg/mL (≈ 51.3 µM); in the test with Aspergillus niger, 12.5 µg/mL (≈ 25.7 µM).
In the case of `OC(Cn1cncn1)(Cn1cncn1)c1ccc(F)cc1F` [FLUCONAZOLE], the MIC in the test on Candida tropicalis was 6.3 µg/mL (≈ 20.6 µM); against Candida albicans, 12.5 µg/mL (≈ 40.8 µM); in the test on Pichia kudriavzevii, 25 µg/mL (≈ 81.6 µM); against Cryptococcus neoformans, 50 µg/mL (≈ 163 µM); in the test with Aspergillus niger, 50 µg/mL (≈ 163 µM).
Consider `Nc1nc(=O)[nH]cc1F` [FLUCYTOSINE], for which the MIC came to 12.5 µg/mL (≈ 96.8 µM) in the test with Candida tropicalis; 6.3 µg/mL (≈ 48.8 µM) against Candida albicans; 6.3 µg/mL (≈ 48.8 µM) in the test with Pichia kudriavzevii; 12.5 µg/mL (≈ 96.8 µM) against Cryptococcus neoformans; 50 µg/mL (≈ 387 µM) in the test with Aspergillus niger.
